The NIST ThermoML archive (doi:10.1016/j.fluid.2008.07.004)
± gives the expanded uncertainty stated by the source.

Details: Liquid

| Structure (SMILES) | vapor or sublimation pressure (352.65 K) [kPa] | vapor or sublimation pressure (330.05 K) [kPa] |
| --- | --- | --- |
| CCC(=O)OC [methyl propanoate] | 101.3 ± 4 | – |
| COC(C)=O [methyl ethanoate] | – | 101.3 ± 3.6 |
